{"source": "patent US6987101B1", "about": "“Therapeutic gestagens for the treatment of premenstrual dysphoric disorder” (Schering Aktiengesellschaft, priority 1996, dated 2006)", "system": "premenstrual dysphoric disorder (PMDD) symptoms", "assay": "Oral treatment of women classified as PMDD patients over 4 to 6 cycles, re-evaluation of symptom criteria 1 to 11", "assay_type": "in vivo, fertile women", "settings": "3 mg drospirenone together with 30 μg ethinylestradiol orally daily, day 1 to day 21 of the cycle, then 7 pill-free or placebo days; evaluated after 4 to 6 cycles; all of the women treated", "source_text": "In the prospective evaluation by recording the symptoms of the patient over 2 or 3 menstrual cycles, 5 (or more) of the symptoms that are listed below occur during the last week of the luteal phase, but no longer occur postmenstrually. At least one of the symptoms must be the first, second, third or fourth symptom below. • 1. Noticeably stressed mental state, feelings of hopelessness or self-doubt • 2. Noticeable feeling of anxiety, tension, feeling of “being on the edge” • 3. Noticeable emotional tendencies (e.g., suddenly feeling sad or fretful or increased sensitivity to rejection) • 4. Lasting and noticeable feelings of unease or irritability or increased interpersonal conflicts • 5. Decreasing interest in conventional activities (e.g., work, school, friends, hobbies) • 6. Subjective sensation of concentration difficulties • 7. Lethargy, slight exhaustion or noticeable lack of energy • 8. Noticeable change in appetite, overeating or special food cravings • 9. […]\nFertile women, who were classified according to the above-indicated criteria 1. to 11. as PMDD patients, are treated orally over at least 4 cycles, in each case from day 1 to day 21 of the cycle daily, with an amount of 3 mg of drospirenone together with 30 μg of ethinylestradiol. […] After a treatment over 4 to 6 cycles, the symptoms that fall into the category criteria 1. to 11. are carefully evaluated again.", "data": [{"smiles": "C[C@]12CCC(=O)C=C1[C@@H]1C[C@@H]1[C@H]1[C@@H]3[C@@H]4C[C@@H]4[C@@]4(CCC(=O)O4)[C@@]3(C)CC[C@@H]12", "note": "[drospirenone]", "values": [{"measurement": "improvement relative to at least one of the PMDD symptoms that occurred before the beginning of the treatment (not only the 11th symptom)", "result": "significant improvement"}]}]}
